What was measured:
[1] = test system: Normal human dermal fibroblasts; assay: Collagen production evaluation test (Sircol collagen assay); format: cell-based; conditions: sample 100 μM, cultured 48 hours; for activity at 100 µM: Homo sapiens, Fibroblast, read-out: Collagen production promoting effect (collagen production amount, control group is 100%)
Description: The collagen production promoting effects of the glyceryl ascorbic acid acylated derivatives of the present invention were evaluated, according to the following procedure. As comparison, arbutin, ascorbic acid, sodium ascorbate, magnesium ascorbyl phosphate, glucosyl ascorbic acid, 3-O-glyceryl ascorbic acid and 2-O-glyceryl ascorbic acid were used like in Test Example 1.
Normal human dermal fibroblasts were regulated with a 10% (v/v) fetal bovine serum (manufactured by Invitrogen)-containing D-MEM so as to give a cell density of 2.5×10^4 cells/well, then, pre-incubation for 24 hours was performed on a 96-well plate. After the medium was removed, a sample regulated with a 5% (v/v) fetal bovine serum-containing D-MEM to a concentration of 100 μM was added to each well, then, cultured for 48 hours at 37° C. and 5% CO2. After completion of culturing, the amount of free collagen was measured using Sircol collagen assay kit (manufactured by Biocolor).
The collagen production amount in applying a sample at a concentration of 100 μM is obtained as % value when the control group is 100%, and the results are shown in Table 4 based on the following standard.

B16 melanoma 4A5 cell = assay: Melanin production suppressing evaluation test (theophylline-induced melanine production); format: cell-based, mouse; conditions: sample at a concentration of 100 μl or less; 0.2 mM theophylline; culturing 3 days
Description: As a test for a whitening effect, evaluation of the action of B16 melanoma 4A5 cell on theophylline-induced melanine production was carried out on a glyceryl ascorbic acid acylated derivative of the present invention, according to the following procedure. The same evaluations were carried out also on arbutin, ascorbic acid, sodium ascorbate, magnesium ascorbyl phosphate, glucosyl ascorbic acid, and 3-O-glyceryl ascorbic acid and 2-O-glyceryl ascorbic acid obtained in the Synthesis Examples mentioned above, as comparison.
(1) B16 mouse melanoma 4A5 strain was sowed onto a 48-well plate at a cell density of 2.0×10^4 cells/well. (2) Culturing was performed for 24 hours with Dulbecco's Modified Eagle's medium (manufactured by SIGMA. Hereinafter, abbreviated as D-MEM) containing 10% fetal bovine serum (manufactured by Roshe Diagnostics). Then, it was changed to 0.2 mM theophylline and a 10% fetal bovine serum-containing D-MEM which contains a sample of given concentration. (3) After culturing for 3 days in the co-existence of a sample, the medium was removed using an aspirator. Then, after distilled water was added, cells were broken by an ultrasonic wave. (4) Thereafter, the amount of protein was determined using BCA protein assay kit (manufactured by PIERCE), and the produced amount of melanine was measured by an alkali solubilizing method described later. To the cell-destructed solution was added sodium hydroxide so as to give a final concentration of 2 mol/L and the mixture was dissolved by heating (60° C., 15 minutes), then, the absorbance at 450 nm was measured using a micro plate reader. The melanine amount was calculated from a calibration curve made using synthetic melanine (SIGMA) as a standard. The melanine amount per unit protein was calculated by dividing the melanine amount by the protein amount. (5) The melanine production suppressing rate was calculated according to the following formula.
Melanine production suppressing rate(%)=[1−(A−B)/(C−B)]×100
[wherein, A represents the melanine amount per unit protein (g/g) in adding a sample, B represents the melanine amount per unit protein (g/g) in the normal group, and C represents the melanine amount per unit protein (g/g) in the control group.]
The normal group means the case where neither theophylline nor sample was added.(that is; theophylline(−) and sample(−))
The control group means the case where neither sample was not added but theophylline was added.(that is; theophylline (+) and sample(−))
In the following Tables, the melanine production suppressing rate in applying a sample at a concentration of […] or less is expressed as described below.

[2] = In vitro moisturizing test (amount of retained water); format: physicochemical; conditions: 25° C., 65% RH to equilibrium, then 25° C., 20% RH for 24 hours
Description: (§1) An in vitro moisturizing test and an in vivo moisturizing test of the glyceryl ascorbic acid acylated derivatives of Examples 1 to 6 were carried out according to the following manner. For comparison, sodium ascorbate, magnesium ascorbyl phosphate, glucosyl ascorbic acid, 3-O-glyceryl ascorbic acid, 2-O-glyceryl ascorbic acid and 3-O-cetyl ascorbic acid were used.
A sample shown later was dried, and the dried sample was spread in an amount of about 0.4 g (this weight is represented by W0) on the bottom of a weighing bottle (diameter: 3.6 cm, height excluding lid: 1.8 cm) so as to give uniform thickness. The sample contained in the weighing bottle was allowed to stand still in a constant humidity and constant temperature vessel (ENVIROS KCL-1000, EYELA) under environments of 25° C. and 65% RH. The weight was measured periodically, waiting until sufficient moisture absorption to attain equilibrium of weight increase (about 48 hours). Thereafter, the sample was transferred to under environments of 25° C. and 20% RH (in sealed vessel containing a saturated CH3COOK aqueous solution filled in the bottom part). From the weight after 24 hours (this weight is represented by W1), the amount of retained water per 1 g of the dried sample was calculated according to the following formula.
From the water amount thus calculated, the moisturizing effect was judged based on the following judging criterion, and the results are shown in Table 8.
Δ: 15 mg or more and less than 35 mg

[3] = In vivo moisturizing test (stratum corneum water content, forearm); conditions: 5 g in 100 mL water, pH 7, 0.3 mL on forearm, 10 subjects
Description: as §1
Each test sample (5 g) was dissolved in 100 mL of water, and pH thereof was adjusted to 7 with a dilute sodium hydroxide aqueous solution or a dilute hydrochloric acid aqueous solution to prepare a sample solution. A paper filter of 1 cm×1 cm was placed on a forearm portion and 0.3 mL of the prepared sample solution was applied on this, and covered and fixed by a polyamide film. Then, 3 hours and 8 hours after, the stratum corneum water content at the sample-applied portion was measured using CORNEOMETER CM825 (manufactured by Integral Corporation). The test was carried out with 10 subjects, and evaluated according to the following criterion (evaluation standard).
3: Stratum corneum water content increased by 15% or more, based on the water content before sample application
2: Stratum corneum water content increased by 0 to less than 15%, based on the water content before sample application
1: There was no change or there was a reduction in stratum corneum water content, before and after sample application.
Based on the evaluation results, classification was set as described below.
◯: Total points of 10 subjects is 25 or more
Δ: Total points of 10 subjects is 16 to 24
x: Total points of 10 subjects is 15 or less

[4] = Stability test: odor and color change of 2% aqueous solution stored at 50° C.; format: physicochemical; conditions: pH7, ten panelists
Description: Using 2-O-glyceryl-6-O-octanoyl ascorbic acid obtained in Example 2 and 2-O-glyceryl-6-O-octadecanoyl ascorbic acid obtained in Example 9, an evaluation was made on the stability of odor and color change when stored at 50° C. for 4 weeks, according to the following procedure. For comparison, magnesium ascorbyl phosphate, ascorbic acid and 3-O-glyceryl ascorbic acid were used.
Aqueous solutions (2%) of various test samples were adjusted to pH7 with a dilute sodium hydroxide aqueous solution or a dilute hydrochloric acid aqueous solution, and charged into 50 mL screw tubes. The tubes were sealed and stored at 50° C. for 4 weeks. The odor and degree of color change immediately after preparation, after storage for two weeks and after storage for four weeks were evaluated by ten panelists based on the following methods and according to the following criterion.
3: almost no change as compared with that immediately after preparation
2: color change is observed as compared with that immediately after preparation
1: intense color change is observed as compared with that immediately after preparation
Based on the evaluation results, classification was conducted as shown below.
◯: total point of 10 panelists is 25 or more
Δ: total point of 10 panelists is 16 to 24
x: total point of 10 panelists is 15 or less

[5] = storage period 0 (immediately after preparation)

SMILES | activity at 100 µM [1] [%] | Whitening effect (melanine production suppressing rate) (B16 melanoma 4A5 cell) | in vitro moisturizing effect (amount of retained water per 1 g of the dried sample) [2] | in vivo moisturizing (stratum corneum water content) after 3 hours [3] | in vivo moisturizing (stratum corneum water content) after 8 hours [3] | Color change ([4]; storage 2 weeks at 50° C.) | Odor ([4]; storage 2 weeks at 50° C.) | Color change ([4]; storage 4 weeks at 50° C.) | Odor ([4]; storage 4 weeks at 50° C.) | Color change [4, 5] | Odor [4, 5] | Collagen production promoting effect (collagen production amount, control group is 100%) [1]
O=C1O[C@H]([C@@H](O)CO)C(O)=C1OCC(O)CO (some centres unmarked) [2-O-glyceryl ascorbic acid, reference compound] | 100 to 200 | Δ (Less than 30%) | ◯ (35 mg or more) | Δ (Total points of 10 subjects is 16 to 24) | Δ (Total points of 10 subjects is 16 to 24) |  |  |  |  |  |  | 
O=C1O[C@H]([C@@H](O)CO)C(OCC(O)CO)=C1O (some centres unmarked) [3-O-glyceryl ascorbic acid] | 100 to 200 | Δ (Less than 30%) | ◯ (35 mg or more) |  | Δ (Total points of 10 subjects is 16 to 24) | ◯ (total point of 10 panelists is 25 or more) | ◯ (total point of 10 panelists is 25 or more) | Δ (total point of 10 panelists is 16 to 24) | ◯ (total point of 10 panelists is 25 or more) | ◯ (total point of 10 panelists is 25 or more) | ◯ (total point of 10 panelists is 25 or more) | 
CCCCCCCC(=O)OC[C@H](O)[C@H]1OC(=O)C(OCC(O)CO)=C1O (some centres unmarked) [Example 2, 2-O-glyceryl-6-O-octanoyl ascorbic acid] | 100 to 200 | ⊚ (50% or more) |  | ◯ (Total points of 10 subjects is 25 or more) | ◯ (Total points of 10 subjects is 25 or more) | ◯ (total point of 10 panelists is 25 or more) | ◯ (total point of 10 panelists is 25 or more) | ◯ (total point of 10 panelists is 25 or more) | ◯ (total point of 10 panelists is 25 or more) | ◯ (total point of 10 panelists is 25 or more) | ◯ (total point of 10 panelists is 25 or more) | 
CCCCCCCCCCCCCCCC(=O)OC[C@H](O)[C@H]1OC(=O)C(OCC(O)CO)=C1O (some centres unmarked) [Example 3, 2-O-glyceryl-6-O-hexadecanoyl ascorbic acid] | 100 to 200 | ⊚ (50% or more) |  | ◯ (Total points of 10 subjects is 25 or more) | ◯ (Total points of 10 subjects is 25 or more) |  |  |  |  |  |  | 
CCCCCCCC(=O)OCC(O)COC1=C(O)[C@@H]([C@@H](O)COC(=O)CCCCCCC)OC1=O (some centres unmarked) [Example 4, 2-O-(3′-O-octanoylglyceryl)-6-O-octanoyl ascorbic acid] | 100 to 200 | ⊚ (50% or more) |  | ◯ (Total points of 10 subjects is 25 or more) | ◯ (Total points of 10 subjects is 25 or more) |  |  |  |  |  |  | 
CCCCCCCCCCCC(=O)OC[C@H](O)[C@H]1OC(=O)C(OCC(O)CO)=C1O (some centres unmarked) [Example 5, 2-O-glyceryl-6-O-dodecanoyl ascorbic acid] | 100 to 200 | ⊚ (50% or more) |  | ◯ (Total points of 10 subjects is 25 or more) | ◯ (Total points of 10 subjects is 25 or more) |  |  |  |  |  |  | 
CCCCC(CC)C(=O)OC[C@H](O)[C@H]1OC(=O)C(OCC(O)CO)=C1O (some centres unmarked) [Example 6, 2-O-glyceryl-6-O-(2-ethylhexanoyl) ascorbic acid] | 100 to 200 | ⊚ (50% or more) |  | ◯ (Total points of 10 subjects is 25 or more) | ◯ (Total points of 10 subjects is 25 or more) |  |  |  |  |  |  | 
O=C1O[C@H]([C@@H](O)CO)C(O)=C1O[C@H]1O[C@H](CO)[C@@H](O)[C@H](O)[C@H]1O [Glucosyl ascorbic acid, reference compound] |  | Δ (Less than 30%) | Δ (15 mg or more and less than 35 mg) |  |  |  |  |  |  |  |  | + (100 to 200%)

Source: patent US20130204017A1, “GLYCERYL ASCORBIC ACID ACYLATED DERIVATIVE OR ITS SALT, PRODUCTION METHOD THEREOF, AND COSMETICS” (SEIWA KASEI COMPANY, LIMITED, priority 2012, published 2013)
